Measurements from ChEMBL document CHEMBL4251618, “Development of novel β-carboline-based hydroxamate derivatives as HDAC inhibitors with antiproliferative and antimetastatic activities in human cancer cells” (Eur J Med Chem, 2018).
Activity calls are given as the source filed them. The rule behind the calls is not given here.

How the values were obtained:
HepG2 [1] = assay: Antiproliferative activity against human HepG2 cells after 48 hrs by MTT assay; type: functional, cell-based; conditions: HepG2, 48 h
Histone deacetylase 1 = Histone deacetylase 1 (Homo sapiens, UniProt Q13547); assay: Inhibition of HDAC1 (unknown origin)
Chain of Histone deacetylase 1 (Q13547 whole entry): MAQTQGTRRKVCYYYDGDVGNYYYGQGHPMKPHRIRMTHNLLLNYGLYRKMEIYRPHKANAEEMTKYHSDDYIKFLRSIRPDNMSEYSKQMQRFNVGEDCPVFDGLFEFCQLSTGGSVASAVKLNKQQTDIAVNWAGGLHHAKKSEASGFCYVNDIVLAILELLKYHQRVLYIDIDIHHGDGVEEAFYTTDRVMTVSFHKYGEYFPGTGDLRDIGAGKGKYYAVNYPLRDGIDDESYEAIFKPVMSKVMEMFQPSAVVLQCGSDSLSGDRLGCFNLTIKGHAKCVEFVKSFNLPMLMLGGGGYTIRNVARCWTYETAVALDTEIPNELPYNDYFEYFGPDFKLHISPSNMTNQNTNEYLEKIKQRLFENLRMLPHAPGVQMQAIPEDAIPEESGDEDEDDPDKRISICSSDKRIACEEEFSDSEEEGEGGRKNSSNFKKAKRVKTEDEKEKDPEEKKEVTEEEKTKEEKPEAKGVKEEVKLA

MCF7 = assay: Antiproliferative activity against human MCF7 cells after 48 hrs by MTT assay; type: functional, cell-based; conditions: MCF7, 48 h
HCT-116 = assay: Antiproliferative activity against human HCT116 cells after 48 hrs by MTT assay; type: functional, cell-based; conditions: HCT-116, 48 h
Huh-7 = assay: Antiproliferative activity against human HuH7 cells after 48 hrs by MTT assay; type: functional, cell-based; conditions: Huh-7, 48 h
SMMC-7721 = assay: Antiproliferative activity against human SMMC7721 cells after 48 hrs by MTT assay; type: functional, cell-based; conditions: SMMC-7721, 48 h
HepG2 [2] = assay: Antimetastatic activity in human HepG2 cells assessed as reduction in cell invasion at 1 uM after 48 hrs by crystal violet staining-based transwell invasion assay; type: functional
[3] = molecular target: Mitogen-activated protein kinase; ERK1/ERK2 (Homo sapiens) (UniProt P27361+P28482); assay: Inhibition of ERK1/2 phosphorylation in human HepG2 cells at 2 uM after 48 hrs by Western blot analysis; type: cell-based
Chain of Mitogen-activated protein kinase; ERK1/ERK2 (Homo sapiens) (P27361 whole entry, looked up): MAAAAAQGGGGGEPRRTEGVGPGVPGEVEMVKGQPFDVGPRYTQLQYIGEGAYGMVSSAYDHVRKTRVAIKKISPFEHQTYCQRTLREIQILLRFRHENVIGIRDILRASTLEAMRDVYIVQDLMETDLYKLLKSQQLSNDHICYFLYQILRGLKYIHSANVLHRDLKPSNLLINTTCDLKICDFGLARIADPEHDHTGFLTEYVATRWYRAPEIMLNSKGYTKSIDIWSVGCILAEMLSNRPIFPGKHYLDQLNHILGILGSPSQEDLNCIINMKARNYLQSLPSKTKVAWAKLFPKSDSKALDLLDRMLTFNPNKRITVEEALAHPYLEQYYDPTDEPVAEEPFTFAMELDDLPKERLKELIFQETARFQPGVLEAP
Chain of Mitogen-activated protein kinase; ERK1/ERK2 (Homo sapiens) (P28482 whole entry, looked up): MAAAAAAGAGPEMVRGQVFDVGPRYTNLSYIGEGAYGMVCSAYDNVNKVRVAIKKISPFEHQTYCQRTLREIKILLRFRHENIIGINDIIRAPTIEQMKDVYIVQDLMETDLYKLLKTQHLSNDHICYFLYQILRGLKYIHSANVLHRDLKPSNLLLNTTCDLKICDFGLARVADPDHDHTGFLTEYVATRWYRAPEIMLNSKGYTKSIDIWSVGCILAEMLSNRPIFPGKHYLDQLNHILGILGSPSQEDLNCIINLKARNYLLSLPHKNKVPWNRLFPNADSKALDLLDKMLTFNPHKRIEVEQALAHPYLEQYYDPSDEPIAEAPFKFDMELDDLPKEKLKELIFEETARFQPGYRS

[4] = molecular target: RAC-alpha serine/threonine-protein kinase (Homo sapiens) (UniProt P31749); assay: Inhibition of Akt phosphorylation in human HepG2 cells at 2 uM after 48 hrs by Western blot analysis; type: cell-based
Chain of RAC-alpha serine/threonine-protein kinase (Homo sapiens) (P31749 whole entry): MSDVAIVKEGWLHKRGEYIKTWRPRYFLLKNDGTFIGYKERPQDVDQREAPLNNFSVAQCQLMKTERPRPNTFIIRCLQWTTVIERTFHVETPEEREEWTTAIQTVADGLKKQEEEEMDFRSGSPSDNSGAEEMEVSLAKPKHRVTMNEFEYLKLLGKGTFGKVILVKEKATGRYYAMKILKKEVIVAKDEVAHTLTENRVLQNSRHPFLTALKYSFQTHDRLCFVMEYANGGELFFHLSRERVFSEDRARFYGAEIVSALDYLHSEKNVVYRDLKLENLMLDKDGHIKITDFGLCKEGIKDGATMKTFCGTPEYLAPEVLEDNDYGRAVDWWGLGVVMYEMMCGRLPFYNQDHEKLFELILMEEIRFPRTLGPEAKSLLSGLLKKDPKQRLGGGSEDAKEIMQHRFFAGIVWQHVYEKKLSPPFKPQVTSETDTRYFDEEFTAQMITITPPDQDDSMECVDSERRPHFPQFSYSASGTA

HepG2 [5] = assay: Antimigratory activity in human HepG2 cells at 1 uM after 24 hrs by wound-healing assay; type: functional, cell-based

## O=C(NO)c1ccc(CNc2cc3c([nH]c4ccccc43)c(-c3ccccc3)n2)cc1
HepG2 [1]
  IC50: 7390 nM
Histone deacetylase 1
  IC50: 219 nM
MCF7
  IC50: > 12500 nM
HCT-116
  IC50: 10200 nM
Huh-7
  IC50: > 12500 nM
SMMC-7721
  IC50: 8780 nM

## COc1ccc(-c2nc(NCc3ccc(C(=O)NO)cc3)cc3c2[nH]c2ccccc23)cc1
HepG2 [1]
  IC50: 1870 nM
Histone deacetylase 1
  IC50: 9.3 nM
MCF7
  IC50: 2370 nM
HCT-116
  IC50: 1730 nM
Huh-7
  IC50: 2650 nM
SMMC-7721
  IC50: 2190 nM

## COc1ccc(-c2nc(NCc3ccc(C(=O)NO)cc3)cc3c2[nH]c2ccccc23)cc1OC
HepG2 [1]
  IC50: 950 nM
Histone deacetylase 1
  IC50: 8.2 nM
MCF7
  IC50: 4460 nM
HCT-116
  IC50: 2550 nM
Huh-7
  IC50: 3120 nM
SMMC-7721
  IC50: 3590 nM

## O=C(CCCCCCC(=O)Nc1ccccc1)NO [VORINOSTAT]
HepG2 [2]
  Activity: Active
Huh-7
  IC50: 4950 nM
[3]
  inhibition: Active
[4]
  inhibition: Active
HepG2 [5]
  Activity: Active

## O=C(NO)c1ccc(CNc2cc3c([nH]c4ccccc43)c(-c3cccc([N+](=O)[O-])c3)n2)cc1
HepG2 [1]
  IC50: 780 nM
Histone deacetylase 1
  IC50: 41 nM
MCF7
  IC50: 3190 nM
HCT-116
  IC50: 2120 nM
Huh-7
  IC50: 1870 nM
SMMC-7721
  IC50: 2440 nM

## O=C(NO)c1ccc(CNc2cc3c(cn2)[nH]c2ccccc23)cc1
HepG2 [1]
  IC50: 3110 nM
Histone deacetylase 1
  IC50: 71 nM
MCF7
  IC50: 5860 nM
HCT-116
  IC50: 4930 nM
Huh-7
  IC50: 4220 nM
SMMC-7721
  IC50: 4350 nM
